Measured values reported in patent publication US20240226125A1, “USE OF SOTAGLIFLOZIN FOR THE TREATMENT OF PATIENTS WITH TYPE 1 DIABETES MELLITUS” (priority 2019, published 2024).

Test system: adult patients with Type 1 Diabetes Mellitus who have inadequate glycemic control with insulin therapy
Test: inTandem 1 and inTandem 2 pooled double-blind placebo-controlled clinical studies, efficacy
Format: in vivo, human
Conditions: for 2-hour postprandial plasma glucose (mg/dL) LS Mean change (SE) / A1C (%) LS Mean change (SE) / Body weight (kg) LS Mean change (SE) / DDS2 (score) LS Mean change (SE) / DTSQ (score) LS Mean change (SE) / Fasting plasma glucose (mg/dL) LS Mean change (SE) / SBP (mmHg) LS Mean change (SE) / Time in range (%) LS Mean change (SE): 200 mg
[1] = 200 mg vs placebo, Baseline BMI <27 kg/m^2, Week 24
[2] = 200 mg vs placebo, Baseline BMI <27 kg/m^2, Week 52
[3] = 200 mg vs placebo, Baseline BMI ≥27 kg/m^2, Week 24
[4] = 200 mg vs placebo, Baseline BMI ≥27 kg/m^2, Week 52
[5] = Baseline BMI <27 kg/m^2, Week 24
[6] = Baseline BMI <27 kg/m^2, Week 52
[7] = Baseline BMI ≥27 kg/m^2, Week 24
[8] = Baseline BMI ≥27 kg/m^2, Week 52
[9] = 400 mg vs placebo, Baseline BMI <27 kg/m^2, Week 24
[10] = 400 mg vs placebo, Baseline BMI <27 kg/m^2, Week 52

## CCOc1ccc(Cc2cc([C@@H]3O[C@H](SC)[C@@H](O)[C@H](O)[C@H]3O)ccc2Cl)cc1 [sotagliflozin, (2S,3R,4R,5S,6R)-2-(4-chloro-3-(4-ethoxybenzyl)phenyl)-6-(methylthio)tetrahydro-2H-pyran-3,4,5-triol]
[1]
  2-hour postprandial plasma glucose (mg/dL) LS Mean Difference (SE): −66.0 (20.22) mg/dL
  A1C (%) LS Mean Difference (SE): −0.32 (0.062) %
  Body weight (kg) LS Mean Difference (SE): −2.06 (0.240) kg
  DDS2 (score) LS Mean Difference (SE): −0.4 (0.16) score
  DTSQ (score) LS Mean Difference (SE): 1.7 (0.42) score
  Fasting plasma glucose (mg/dL) LS Mean Difference (SE): −15.7 (5.69) mg/dL
  SBP (mmHg) LS Mean Difference (SE): −3.1 (0.97) mmHg
  Time in range (%) LS Mean Difference (SE): 1.638 (3.8450) %
[2]
  A1C (%) LS Mean Difference (SE): −0.20 (0.078) %
  Body weight (kg) LS Mean Difference (SE): −2.26 (0.317) kg
  SBP (mmHg) LS Mean Difference (SE): −4.1 (1.05) mmHg
[3]
  2-hour postprandial plasma glucose (mg/dL) LS Mean Difference (SE): −19.0 (14.71) mg/dL
  A1C (%) LS Mean Difference (SE): −0.39 (0.046) %
  Body weight (kg) LS Mean Difference (SE): −2.27 (0.272) kg
  DDS2 (score) LS Mean Difference (SE): −0.6 (0.13) score
  DTSQ (score) LS Mean Difference (SE): 2.6 (0.35) score
  Fasting plasma glucose (mg/dL) LS Mean Difference (SE): −15.7 (4.57) mg/dL
  SBP (mmHg) LS Mean Difference (SE): −1.3 (0.87) mmHg
  Time in range (%) LS Mean Difference (SE): 8.171 (2.9713) %
[4]
  A1C (%) LS Mean Difference (SE): −0.24 (0.056) %
  Body weight (kg) LS Mean Difference (SE): −3.01 (0.357) kg
  SBP (mmHg) LS Mean Difference (SE): −2.1 (0.90) mmHg
[5]
  2-hour postprandial plasma glucose (mg/dL) LS Mean change (SE): −49.5 (17.63) mg/dL
  A1C (%) LS Mean change (SE): −0.38 (0.047) %
  Body weight (kg) LS Mean change (SE): −1.43 (0.177) kg
  DDS2 (score) LS Mean change (SE): −0.2 (0.13) score
  DTSQ (score) LS Mean change (SE): 1.7 (0.33) score
  Fasting plasma glucose (mg/dL) LS Mean change (SE): −10.8 (4.22) mg/dL
  SBP (mmHg) LS Mean change (SE): −3.0 (0.74) mmHg
  Time in range (%) LS Mean change (SE): −0.532 (2.9540) %
[6]
  A1C (%) LS Mean change (SE): −0.19 (0.057) %
  Body weight (kg) LS Mean change (SE): −1.57 (0.230) kg
  SBP (mmHg) LS Mean change (SE): −1.4 (0.79) mmHg
[7]
  2-hour postprandial plasma glucose (mg/dL) LS Mean change (SE): −36.8 (11.72) mg/dL
  A1C (%) LS Mean change (SE): −0.43 (0.034) %
  Body weight (kg) LS Mean change (SE): −1.93 (0.196) kg
  DDS2 (score) LS Mean change (SE): −0.5 (0.10) score
  DTSQ (score) LS Mean change (SE): 2.3 (0.26) score
  Fasting plasma glucose (mg/dL) LS Mean change (SE): −9.3 (3.33) mg/dL
  SBP (mmHg) LS Mean change (SE): −2.9 (0.64) mmHg
  Time in range (%) LS Mean change (SE): 6.254 (2.1983) %
[8]
  A1C (%) LS Mean change (SE): −0.24 (0.041) %
  Body weight (kg) LS Mean change (SE): −2.16 (0.254) kg
  SBP (mmHg) LS Mean change (SE): −1.7 (0.66) mmHg
[9]
  2-hour postprandial plasma glucose (mg/dL) LS Mean Difference (SE): −86.1 (21.27) mg/dL
  A1C (%) LS Mean Difference (SE): −0.27 (0.063) %
  Body weight (kg) LS Mean Difference (SE): −2.55 (0.243) kg
  DDS2 (score) LS Mean Difference (SE): −0.5 (0.16) score
  DTSQ (score) LS Mean Difference (SE): 1.5 (0.43) score
  Fasting plasma glucose (mg/dL) LS Mean Difference (SE): −16.4 (5.78) mg/dL
  SBP (mmHg) LS Mean Difference (SE): −3.5 (0.98) mmHg
  Time in range (%) LS Mean Difference (SE): 6.335 (3.8492) %
[10]
  A1C (%) LS Mean Difference (SE): −0.21 (0.079) %
  Body weight (kg) LS Mean Difference (SE): −2.41 (0.324) kg
  SBP (mmHg) LS Mean Difference (SE): −3.7 (1.08) mmHg
